Laboratory results published in ChEMBL document CHEMBL1201862, “PubChem BioAssay data set” (2004).
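How tested: cells in 96-well plates exposed to compound for 48 hours at five concentrations. Abbreviation: GI50, concentration required for 50% inhibition of growth.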 Calls of active or inactive are those of the source. No stated cut-off is given here; in the data, active = GI50 up to about 1.1 µM and inactive = higher.

Tests used:
Test in all cases: NCI-60 cell line screen, 48 h
[1] = test system: 786-0
[2] = test system: BT-549
[3] = test system: DU-145
[4] = test system: MDA-N
[5] = test system: MOLT-4
[6] = test system: Malme-3M
[7] = test system: NCI-H226
[8] = test system: NCI-H23
[9] = test system: OVCAR-4
[10] = test system: RPMI-8226
[11] = test system: SK-MEL-28
[12] = test system: SK-OV-3
[13] = test system: SW-620
[14] = test system: IGROV-1
[15] = test system: NCI-H522
[16] = test system: RXF 393
[17] = test system: SK-MEL-5
[18] = test system: TK-10
[19] = test system: HOP-92

SMILES	GI50 [1]	GI50 [2]	GI50 [3]	GI50 [4]	GI50 [5]	GI50 [6]	GI50 [7]	GI50 [8]	GI50 [9]	GI50 [10]	GI50 [11]	GI50 [12]	GI50 [13]	GI50 [14]	GI50 [15]	GI50 [16]	GI50 [17]	GI50 [18]	GI50 [19]
O=[N+]([O-])C(/C(Cl)=C(/Cl)N1CCCCC1)=C1\NCCO1	> 100 µM (inactive)	> 100 µM (inactive)	> 100 µM (inactive)	> 100 µM (inactive)	> 100 µM (inactive)	> 100 µM (inactive)	> 100 µM (inactive)	> 100 µM (inactive)	> 100 µM (inactive)	> 100 µM (inactive)	> 100 µM (inactive)	> 100 µM (inactive)	> 100 µM (inactive)						
CCCNC(=O)Cn1c(-c2ccccc2)cc2ccccc21	54 µM (inactive)	> 100 µM (inactive)	> 100 µM (inactive)	83.4 µM (inactive)	85.1 µM (inactive)	92 µM (inactive)	> 100 µM (inactive)	48 µM (inactive)	24.4 µM (inactive)	> 100 µM (inactive)	92.3 µM (inactive)	29.4 µM (inactive)	> 100 µM (inactive)	43.9 µM (inactive)	23.7 µM (inactive)	18.5 µM (inactive)	30.5 µM (inactive)	43.1 µM (inactive)	
CC(=O)OCC1OC(Nc2ccc3nc(C)n(-c4cccc(C)c4)c(=O)c3c2)C(OC(C)=O)C(OC(C)=O)C1OC(C)=O (stereo unspecified)	> 62.5 µM (inactive)	> 62.5 µM (inactive)	> 62.5 µM (inactive)	> 62.5 µM (inactive)	> 62.5 µM (inactive)	> 62.5 µM (inactive)	> 62.5 µM (inactive)	> 62.5 µM (inactive)	> 62.5 µM (inactive)	36.4 µM (inactive)	> 62.5 µM (inactive)		> 62.5 µM (inactive)	> 62.5 µM (inactive)	> 62.5 µM (inactive)	> 62.5 µM (inactive)	> 62.5 µM (inactive)	> 62.5 µM (inactive)	
COc1cc(OC)c(-c2oc3ccccc3c(=O)c2O)c(OC)c1	13.4 µM (inactive)	1.67 µM (inactive)		0.867 µM (active)	3.52 µM (inactive)	2.86 µM (inactive)	> 100 µM (inactive)	17.3 µM (inactive)	0.237 µM (active)	4.28 µM (inactive)	> 22.8 µM (inactive)	5.94 µM (inactive)	3.62 µM (inactive)	4.37 µM (inactive)	2.75 µM (inactive)	2.43 µM (inactive)	3.68 µM (inactive)	> 100 µM (inactive)	8.17 µM (inactive)
Cc1ccc2nc(-c3nccn3C)cc(C(=O)NC(C)CN(C)C)c2c1 (stereo unspecified)	> 100 µM (inactive)	> 100 µM (inactive)	> 100 µM (inactive)	> 100 µM (inactive)	> 10 µM (inactive)	> 100 µM (inactive)	98.6 µM (inactive)	> 100 µM (inactive)			> 100 µM (inactive)		> 100 µM (inactive)	> 100 µM (inactive)		> 100 µM (inactive)	97.9 µM (inactive)	> 100 µM (inactive)	46.3 µM (inactive)
N#CC(c1ccccc1)N(CCOCCOCCN(C(=O)c1cccc2ccccc12)C(C#N)c1ccccc1)C(=O)c1cccc2ccccc12 (stereo unspecified)	> 100 µM (inactive)	> 100 µM (inactive)	> 100 µM (inactive)	> 100 µM (inactive)	8.15 µM (inactive)	> 100 µM (inactive)	> 100 µM (inactive)	> 100 µM (inactive)	> 100 µM (inactive)		> 100 µM (inactive)	> 100 µM (inactive)	> 100 µM (inactive)	> 100 µM (inactive)		> 100 µM (inactive)	> 100 µM (inactive)	> 100 µM (inactive)	
COc1ccc(-c2[nH]c(-c3ccc(OC)cc3)c(-c3ccccn3)c2-c2ccccn2)cc1	> 100 µM (inactive)	36.2 µM (inactive)	> 100 µM (inactive)	> 100 µM (inactive)	34.7 µM (inactive)	21.1 µM (inactive)	85.7 µM (inactive)	42.5 µM (inactive)		20.2 µM (inactive)		> 100 µM (inactive)	36 µM (inactive)	71.8 µM (inactive)		31.3 µM (inactive)	18.3 µM (inactive)	> 100 µM (inactive)	> 100 µM (inactive)
COc1cc(OC)c(OC)cc1/C=C/c1ccc2ccccc2n1	> 10 µM (inactive)	8.89 µM (inactive)	> 10 µM (inactive)	8.07 µM (inactive)	3.78 µM (inactive)	> 10 µM (inactive)		2.89 µM (inactive)	> 10 µM (inactive)	3.66 µM (inactive)	> 10 µM (inactive)	> 10 µM (inactive)	> 10 µM (inactive)	> 10 µM (inactive)	5.41 µM (inactive)		8.77 µM (inactive)	> 10 µM (inactive)	5.57 µM (inactive)
C/C=C1\CC(C(=O)OCC)CCCCCCCCCCC1=O (stereo unspecified)	70.1 µM (inactive)	82.8 µM (inactive)	54.3 µM (inactive)	29.4 µM (inactive)	29 µM (inactive)	32.4 µM (inactive)	25.1 µM (inactive)	37.6 µM (inactive)	55.5 µM (inactive)		> 100 µM (inactive)	> 100 µM (inactive)	38.5 µM (inactive)	31.8 µM (inactive)	25.5 µM (inactive)	55.8 µM (inactive)	29.2 µM (inactive)	> 100 µM (inactive)	
COc1ccc2oc(OC)c(CC=C(C)C)c(=O)c2c1C	> 100 µM (inactive)	> 100 µM (inactive)	> 100 µM (inactive)	> 100 µM (inactive)	> 100 µM (inactive)	> 100 µM (inactive)	> 100 µM (inactive)	> 100 µM (inactive)		> 100 µM (inactive)	> 100 µM (inactive)	> 100 µM (inactive)	> 100 µM (inactive)	> 100 µM (inactive)	> 100 µM (inactive)		> 100 µM (inactive)	> 100 µM (inactive)	
O=C1Nc2ccccc2C(=O)O/C(Cc2ccccc2)=N\c2ccccc21	> 100 µM (inactive)	> 100 µM (inactive)	> 100 µM (inactive)	> 100 µM (inactive)	> 100 µM (inactive)		> 100 µM (inactive)	> 100 µM (inactive)	> 100 µM (inactive)	> 100 µM (inactive)	> 100 µM (inactive)	> 100 µM (inactive)	> 100 µM (inactive)	> 100 µM (inactive)	> 100 µM (inactive)	> 100 µM (inactive)	> 100 µM (inactive)	> 100 µM (inactive)	
C#CCN(C(=O)C(F)(F)F)C(/C=C\C(=O)OC)(C(=O)OCC)C(=O)OCC	> 100 µM (inactive)	> 100 µM (inactive)	> 100 µM (inactive)	> 100 µM (inactive)	> 100 µM (inactive)	> 100 µM (inactive)	> 100 µM (inactive)	> 100 µM (inactive)	> 100 µM (inactive)	> 100 µM (inactive)	> 100 µM (inactive)	> 100 µM (inactive)	> 100 µM (inactive)	> 100 µM (inactive)	> 100 µM (inactive)	> 100 µM (inactive)	> 100 µM (inactive)	> 100 µM (inactive)	
O=C(NCP(=O)(O)O)c1cccnc1 [(NICOTINAMIDOMETHYL)PHOSPHONIC ACID]	> 100 µM (inactive)	> 100 µM (inactive)	> 100 µM (inactive)	> 100 µM (inactive)	> 100 µM (inactive)		> 100 µM (inactive)	> 100 µM (inactive)	> 100 µM (inactive)	> 100 µM (inactive)	> 100 µM (inactive)	> 100 µM (inactive)	> 100 µM (inactive)	> 100 µM (inactive)		> 100 µM (inactive)	> 100 µM (inactive)	> 100 µM (inactive)	> 100 µM (inactive)
Cc1cc(N(CCC#N)CCC#N)ccc1C(/N=N/c1ccccc1)=N\NC(=O)c1ccccc1	25.5 µM (inactive)	24 µM (inactive)	21.7 µM (inactive)	7.96 µM (inactive)	19.5 µM (inactive)	34 µM (inactive)	43.4 µM (inactive)	30.5 µM (inactive)	29.2 µM (inactive)	42.7 µM (inactive)		53.5 µM (inactive)		28.2 µM (inactive)	16.3 µM (inactive)	58.1 µM (inactive)	18.7 µM (inactive)	7.66 µM (inactive)	
Cc1ccc(-c2cc[n+]3c(n2)oc2ccccc23)cc1	14.7 µM (inactive)	28.2 µM (inactive)	51.8 µM (inactive)	31.6 µM (inactive)	10.8 µM (inactive)	13.2 µM (inactive)		39.9 µM (inactive)	16 µM (inactive)	12.5 µM (inactive)	22.1 µM (inactive)	33.6 µM (inactive)	8.93 µM (inactive)	26.8 µM (inactive)	5.98 µM (inactive)				14.2 µM (inactive)
C[C@]12O[C@@]3(C)O[C@@]3(C)[C@]3(C)O[C@]3(C)[C@@]1(C)O2	> 100 µM (inactive)	> 100 µM (inactive)	> 100 µM (inactive)	> 100 µM (inactive)	> 100 µM (inactive)	> 100 µM (inactive)	> 100 µM (inactive)	> 100 µM (inactive)	> 100 µM (inactive)		> 100 µM (inactive)	> 100 µM (inactive)			> 100 µM (inactive)		> 100 µM (inactive)	> 100 µM (inactive)	> 100 µM (inactive)
